According to patent US4616081A, “Cephalosporin compounds” (Asahi Kasei Kogyo Kabushiki Kaisha, priority 1982, dated 1986):

Key:
[1] = test system: Staph. aureus ATCC 6538P; assay: MIC against Staph. aureus ATCC 6538P; format: cell-based
Experimental: (§1) Nextly, antibacterial activity or minimum inhibitory concentration (MIC) was measured and the results are shown in Table 1 with respect to the following representative compounds according to the present invention. [drawing 19]
(§2) With respect to Compound Nos. 14 and 15, antibacterial activity or minimum inhibitory concentration (MIC) was measured and the results are shown in Table 2. [drawing 21]

[2] = test system: Enterobact. cloacae GN336; assay: MIC against Enterobact. cloacae GN336; format: cell-based
Experimental: as §1, §2

[3] = test system: E. coli NIHJ-JC2; assay: MIC against E. coli NIHJ-JC2; format: cell-based
Experimental: as §1, §2

[4] = test system: E. coli W3630 PS3; assay: MIC against E. coli W3630 PS3; format: cell-based
Experimental: as §1, §2

[5] = test system: Enterobact. aerogenes 0655; assay: MIC against Enterobact. aerogenes 0655; format: cell-based
Experimental: as §1, §2

[6] = test system: Sarcina lutea ATCC 9341; assay: MIC against Sarcina lutea ATCC 9341; format: cell-based
Experimental: as §1, §2

[7] = test system: Citrobact. freundii GN346; assay: MIC against Citrobact. freundii GN346; format: cell-based
Experimental: as §1, §2

[8] = test system: Klebs. pneumoniae ATCC 10031; assay: MIC against Klebs. pneumoniae ATCC 10031; format: cell-based
Experimental: as §1, §2

[9] = test system: E. coli W3630; assay: MIC against E. coli W3630; format: cell-based
Experimental: as §1, §2

[10] = maximum blood concentration after oral administration in Wister rats (HPLC and Bioassay); format: in vivo; conditions: Wister rat, fasted, 30 mg/kg, solution of pH 7 in phosphate buffer
Experimental: Further in the compounds according to the present invention, intestinal absorption is improved by the introduction of amino acids at the 3-position thereof. For example, comparison of the maximum blood concentration of the Compound Nos. 2, 3, 7, 8, 14, 15 and 23 with that of Comparative Compound (b) establishes and affirms the effects, as is shown below. In the above test, the method for measurement of blood concentration was as follows. Rate: Wister rat weighing 170 to 220 g Dose: 30 mg/kg Wister rats were fasted from the previous night but freely accessible to water. Each of drugs was administered as a solution of pH 7 in a phosphate buffer, when orally administered. The blood concentration was measured in accordance with the High Performance Liquid Chromatography (HPLC) method and the Bioassay method by using E. coli as bacteria for test.

[11] = test system: Shigella sonnei E33; assay: MIC against Shigella sonnei E33; format: cell-based
Experimental: as §1, §2

[12] = test system: Serratia marcescens; assay: MIC against Serratia marcescens; format: cell-based
Experimental: as §1, §2

[13] = test system: Proteus morganii 0239; assay: MIC against Proteus morganii 0239; format: cell-based
Experimental: as §1, §2

[14] = test system: Proteus rettgeri ACR; assay: MIC against Proteus rettgeri ACR; format: cell-based
Experimental: as §1, §2

[15] = test system: E. coli W3630 RGN14; assay: MIC against E. coli W3630 RGN14; format: cell-based
[16] = test system: Staph. aureus MS27; assay: MIC against Staph. aureus MS27; format: cell-based
Experimental: as §1, §2

[17] = test system: E. coli W3630 RGN238; assay: MIC against E. coli W3630 RGN238; format: cell-based
[18] = test system: Staph. pyogenes NY5; assay: MIC against Staph. pyogenes NY5; format: cell-based
[19] = test system: Salm. enteritidis Gaertner; assay: MIC against Salm. enteritidis Gaertner; format: cell-based
Experimental: as §1, §2

[20] = test system: E. coli 0205; assay: MIC against E. coli 0205; format: cell-based
[21] = test system: Ps. aeruginosa 0812 M2; assay: MIC against Ps. aeruginosa 0812 M2; format: cell-based; conditions: Bacterial count inoculated 10^6 cells/ml
Experimental: as §1, §2

[22] = acute toxicity test using mice, intraperitoneal; conditions: mouse, in vivo, ip
Description: In addition to excellent antibacterial activity, the compounds of the present invention are low in toxicity. For example, in acute toxicity test using mice, the following results were obtained with Compound Nos. 2, 3, 7, 14, 15 and 23 which were intraperitoneally administered.

[23] = test system: Strept. pyogenes NY5; assay: MIC against Strept. pyogenes NY5; format: cell-based; conditions: Bacterial count inoculated 10^6 cells/ml
Experimental: as §1, §2

[24] = Bacterial count inoculated 10^6 cells/ml
[25] = Bacterial count inoculated 10^8 cells/ml
[26] = Table 3, second listing of the strain, head prints 10^6 cells/ml

CO/N=C(\C(=O)N[C@@H]1C(=O)N2C(C(=O)O)=C(COC(C)=O)CS[C@H]12)c1csc(N)n1 [Comparative Compound (b), reference compound]
Minimum Inhibitory Concentration (MIC) [1, 24]: 1.6 | Minimum Inhibitory Concentration (MIC) [1, 25]: 3.1 | Minimum Inhibitory Concentration (MIC) [2, 24]: ≤ 0.2 | Minimum Inhibitory Concentration (MIC) [2, 25]: 50 | Minimum Inhibitory Concentration (MIC) [2, 26]: 50 | Minimum Inhibitory Concentration (MIC) [3, 25]: 6.3 | Minimum Inhibitory Concentration (MIC) [3, 26]: 25 | Minimum Inhibitory Concentration (MIC) [4, 24]: ≤ 0.2 | Minimum Inhibitory Concentration (MIC) [4, 25]: 25 | Minimum Inhibitory Concentration (MIC) [5, 24]: ≤ 0.2 | Minimum Inhibitory Concentration (MIC) [5, 25]: 50 | Minimum Inhibitory Concentration (MIC) [6, 24]: ≤ 0.2 | Minimum Inhibitory Concentration (MIC) [6, 25]: ≤ 0.2 | Minimum Inhibitory Concentration (MIC) [7, 24]: 25 | Minimum Inhibitory Concentration (MIC) [7, 25]: 100 | Minimum Inhibitory Concentration (MIC) [8, 24]: ≤ 0.2 | Minimum Inhibitory Concentration (MIC) [8, 25]: 25 | Minimum Inhibitory Concentration (MIC) [8, 26]: 1.6 | Minimum Inhibitory Concentration (MIC) [9, 24]: ≤ 0.2 | Minimum Inhibitory Concentration (MIC) [9, 25]: 25 | Minimum Inhibitory Concentration (MIC) [9, 26]: 6.3 | Cmax [10]: 200 ng/mL | Minimum Inhibitory Concentration (MIC) [11, 24]: ≤ 0.2 | Minimum Inhibitory Concentration (MIC) [11, 25]: 1.6 | Minimum Inhibitory Concentration (MIC) [11, 26]: 3.1 | Minimum Inhibitory Concentration (MIC) [12, 24]: ≤ 0.2 | Minimum Inhibitory Concentration (MIC) [12, 25]: 50 | Minimum Inhibitory Concentration (MIC) [12, 26]: > 100 | Minimum Inhibitory Concentration (MIC) [13, 24]: ≤ 0.2 | Minimum Inhibitory Concentration (MIC) [13, 25]: 50 | Minimum Inhibitory Concentration (MIC) [14, 24]: ≤ 0.2 | Minimum Inhibitory Concentration (MIC) [14, 26]: 100 | Minimum Inhibitory Concentration (MIC) [15, 24]: ≤ 0.2 | Minimum Inhibitory Concentration (MIC) [15, 26]: 100 | Minimum Inhibitory Concentration (MIC) [16, 24]: 1.6 | Minimum Inhibitory Concentration (MIC) [16, 25]: 3.1 | Minimum Inhibitory Concentration (MIC) [17, 24]: ≤ 0.2 | Minimum Inhibitory Concentration (MIC) [17, 26]: ≥ 100 | Minimum Inhibitory Concentration (MIC) [18, 24]: ≤ 0.2 | Minimum Inhibitory Concentration (MIC) [18, 25]: 0.2 | Minimum Inhibitory Concentration (MIC) [19, 24]: ≤ 0.2 | Minimum Inhibitory Concentration (MIC) [19, 25]: 6.3 | Minimum Inhibitory Concentration (MIC) [20, 24]: 0.4 | Minimum Inhibitory Concentration (MIC) [20, 26]: 50

CCN1CCN(C(=O)NC(C(=O)NC2C(=O)N3C(C(=O)O)=C(CSc4nnnn4C)CSC23)c2ccc(O)cc2)C(=O)C1=O (stereo not drawn) [Comparative Compound (c), reference compound]
Minimum Inhibitory Concentration (MIC) [1, 24]: 1.6 | Minimum Inhibitory Concentration (MIC) [1, 25]: 1.6 | Minimum Inhibitory Concentration (MIC) [2, 24]: ≤ 0.2 | Minimum Inhibitory Concentration (MIC) [2, 25]: 50 | Minimum Inhibitory Concentration (MIC) [3, 24]: ≤ 0.2 | Minimum Inhibitory Concentration (MIC) [3, 25]: 6.3 | Minimum Inhibitory Concentration (MIC) [4, 24]: ≤ 0.2 | Minimum Inhibitory Concentration (MIC) [4, 25]: 25 | Minimum Inhibitory Concentration (MIC) [5, 24]: 0.8 | Minimum Inhibitory Concentration (MIC) [5, 25]: > 100 | Minimum Inhibitory Concentration (MIC) [6, 24]: ≤ 0.2 | Minimum Inhibitory Concentration (MIC) [6, 25]: ≤ 0.2 | Minimum Inhibitory Concentration (MIC) [7, 24]: 50 | Minimum Inhibitory Concentration (MIC) [7, 25]: > 100 | Minimum Inhibitory Concentration (MIC) [8, 24]: ≤ 0.2 | Minimum Inhibitory Concentration (MIC) [8, 25]: > 100 | Minimum Inhibitory Concentration (MIC) [9, 24]: 0.4 | Minimum Inhibitory Concentration (MIC) [9, 25]: 25 | Minimum Inhibitory Concentration (MIC) [11, 24]: ≤ 0.2 | Minimum Inhibitory Concentration (MIC) [11, 25]: ≤ 0.2 | Minimum Inhibitory Concentration (MIC) [12, 24]: 0.8 | Minimum Inhibitory Concentration (MIC) [12, 25]: > 100 | Minimum Inhibitory Concentration (MIC) [13, 24]: 0.8 | Minimum Inhibitory Concentration (MIC) [13, 25]: > 100 | Minimum Inhibitory Concentration (MIC) [16, 24]: 3.1 | Minimum Inhibitory Concentration (MIC) [16, 25]: 50 | Minimum Inhibitory Concentration (MIC) [18, 24]: ≤ 0.2 | Minimum Inhibitory Concentration (MIC) [18, 25]: 0.4 | Minimum Inhibitory Concentration (MIC) [19, 24]: 0.4 | Minimum Inhibitory Concentration (MIC) [19, 25]: 50

CO/N=C(\C(=O)N[C@@H]1C(=O)N2C(C(=O)O)=C(CSc3nc(C(=O)O)c(N)n3C)CS[C@H]12)c1csc(N)n1 [Compound No. 2]
Minimum Inhibitory Concentration (MIC) [1, 24]: 3.1 | Minimum Inhibitory Concentration (MIC) [2, 24]: 0.8 | Minimum Inhibitory Concentration (MIC) [3, 24]: 0.2 | Minimum Inhibitory Concentration (MIC) [4, 24]: 0.2 | Minimum Inhibitory Concentration (MIC) [5, 24]: 1.6 | Minimum Inhibitory Concentration (MIC) [6, 24]: 0.2 | Minimum Inhibitory Concentration (MIC) [7, 24]: 25 | Minimum Inhibitory Concentration (MIC) [8, 24]: 0.1 | Minimum Inhibitory Concentration (MIC) [9, 24]: 0.2 | Cmax [10]: 16000 ng/mL | Minimum Inhibitory Concentration (MIC) [11, 24]: 0.4 | Minimum Inhibitory Concentration (MIC) [12, 24]: 0.2 | Minimum Inhibitory Concentration (MIC) [13, 24]: 0.1 | Minimum Inhibitory Concentration (MIC) [14, 24]: 0.2 | Minimum Inhibitory Concentration (MIC) [16, 24]: 6.3 | Minimum Inhibitory Concentration (MIC) [19, 24]: 0.2 | Minimum Inhibitory Concentration (MIC) [21]: 6.3 | LD50 [22]: 9000 to 10000 mg/kg | Minimum Inhibitory Concentration (MIC) [23]: 0.1
